Source: patent publication US20060089371A1, “Phenyl or heteroaryl amino alkane derivatives as ip receptor antagonist” (Bayer HealthCare AG, priority 2002, published 2006)

Key:
IP receptor = target: T1, IP receptor (Homo sapiens, UniProt P43119); assay: IP receptor binding/cAMP in HEL cells ([3H]-iloprost binding, Assay 1; iloprost-induced cAMP production, Assay 2); details: compounds of about 40 to 90% purity, read-out: In vitro activity grade (IC50 class)
T1 construct: one million cells in 160 μl aliquot of cell suspension were put in a well of 96 well plate; host or cells: HEL 92.1.7 human erythroleukemia cells (whole cells)
T1 sequence (P43119 whole entry): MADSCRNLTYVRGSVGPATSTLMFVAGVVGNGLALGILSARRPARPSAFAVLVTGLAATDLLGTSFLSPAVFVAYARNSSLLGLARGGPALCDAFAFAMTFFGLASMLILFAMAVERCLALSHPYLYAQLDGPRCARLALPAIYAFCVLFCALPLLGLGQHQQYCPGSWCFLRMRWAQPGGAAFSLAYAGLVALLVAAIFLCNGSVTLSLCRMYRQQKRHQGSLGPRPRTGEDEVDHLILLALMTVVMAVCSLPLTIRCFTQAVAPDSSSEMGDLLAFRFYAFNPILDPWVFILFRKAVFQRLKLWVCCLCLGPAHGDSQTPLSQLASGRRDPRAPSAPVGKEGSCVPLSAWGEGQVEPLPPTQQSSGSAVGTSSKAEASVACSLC
In short: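 For binding (Assay 1), 1×10^6 HEL 92.1.7 cells in 50 mM Tris-HCl, 5 mM MgCl2, pH 7.5 were incubated with [3H]-iloprost (0.02 μCi) for 30 min at RT and filter-counted; a 100 μM iloprost solution defined non-specific binding. Compounds were of 40-90% purity.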

melting point	IC50 (IP receptor) [nM]	SMILES
112 to 115 °C	< 100	CN(c1cc(-c2ccc(OCc3ccccc3)cc2)ncn1)C(Cc1ccccc1)C(=O)O (stereo not drawn) [Example 1-58]
124 to 126 °C (dec.)	100 to 1000	O=C(O)C(Cc1ccccc1)Nc1cc(-c2ccc(-c3cccc(-c4ccccc4)c3)cc2)ncn1 (stereo not drawn) [Example 11-6]
135 to 136 °C (dec.)	< 100	O=C(O)C(Cc1ccccc1)Nc1cc(-c2ccc(OCc3cccnc3)cc2)ncn1 (stereo not drawn) [Example 2-21]
228 to 231 °C (dec.)	100 to 1000	O=C(Nc1ccccc1)c1ccc(-c2cc(NC(Cc3ccccc3)C(=O)O)ncn2)cc1 (stereo not drawn) [Example 1-5]
187 °C	< 100	CCCCC(Nc1cc(-c2ccc(OCc3ccccc3)cc2)ncn1)C(=O)O (stereo not drawn) [Example 1-13]
142 °C	< 100	O=C(O)[C@@H](Cc1ccccn1)Nc1cc(-c2ccc(OCc3ccccc3)cc2)ncn1 [Example 1-4, N-{6-[4-(benzyloxy)phenyl]pyrimidin-4-yl}-3-pyridin-2-yl-D-alanine]
113 to 114 °C	< 100	O=C(O)C(Cc1ccccc1)Nc1cc(-c2ccc(OCC3CC3)nc2)ncn1 (stereo not drawn) [Example 25-3]
167 to 169 °C	< 100	O=C(O)C(Cc1ccccc1)Nc1cccc(-c2ccc(OCc3cccc(F)c3)cc2)c1 (stereo not drawn) [Example 24-5]
215 to 218 °C (dec.)	< 100	O=C(O)[C@H](Cc1ccccc1)Nc1cc(-c2ccc(C#Cc3ccccc3)cc2)ncn1 [Example 9-1, N-{6-[4-(Phenylethynyl)phenyl]pyrimidin-4-yl}phenylalanine]
205 to 208 °C	< 100	CCCCOc1ccc(-c2cc(NC(Cc3ccccc3)C(=O)O)ncn2)cc1 (stereo not drawn) [Example 2-10]
114 to 117 °C	100 to 1000	O=C(O)[C@H](Cc1ccccc1)Nc1ncnc(-c2ccc(OCc3ccccc3)cc2)c1CO [Example 23-1, N-[6-[4-(Benzyloxy)phenyl]-5-(hydroxymethyl)pyrimidin-4-yl]phenylalanine]
155 °C	< 100	C#CCC(Nc1cc(-c2ccc(OCc3ccccc3)cc2)ncn1)C(=O)O (stereo not drawn) [Example 1-23]
180 to 183 °C (dec.)	< 100	O=C(O)[C@@H](Cc1ccccc1)Nc1cc(-c2ccc(OCC3CC3)cc2)ncn1 [Example 1-2, N-{6-[4-(Cyclopropylmethoxy)phenyl]pyrimidin-4-yl}-D-phenylalanine]
181 to 186 °C	< 100	CCCCC(Nc1cc(-c2ccc(OCc3cccc(F)c3)cc2)ncn1)C(=O)O (stereo not drawn) [Example 2-35]
92 to 95 °C	< 100	O=C(O)C(Cc1ccccn1)Nc1cc(-c2ccc(OCc3cccc(F)c3)cc2)ncn1 (stereo not drawn) [Example 2-33]
81 to 84 °C	< 100	O=C(O)C(Cc1ccccn1)Nc1cc(-c2ccc(COc3ccccc3)cc2)ncn1 (stereo not drawn) [Example 20-2]
90 to 92 °C	< 100	O=C(O)C(Cc1ccccn1)Nc1cc(-c2ccc(OCc3cc(F)cc(F)c3)cc2)ncn1 (stereo not drawn) [Example 2-39]
109 to 111 °C	< 100	O=C(c1ccccc1)c1ccc(-c2cc(N[C@@H](Cc3ccccc3)C(=O)O)ncn2)cc1 [Example 17-1, N-[6-(4-Benzoylphenyl)pyrimidin-4-yl]phenylalanine]
84 to 87 °C	< 100	O=C(O)C(Cc1ccccn1)Nc1cc(-c2ccc(OCc3ccccc3F)cc2)ncn1 (stereo not drawn) [Example 2-32]
152 to 154 °C	< 100	O=C(O)[C@H](Cc1ccccc1)Nc1cccc(-c2ccc(OCc3ccccc3)cc2)c1 [Example 24-1, N-[4′-(Benzyloxy)biphenyl-3-yl]phenylalanine]
138 °C	100 to 1000	CS(=O)(=O)CCC(Nc1cc(-c2ccc(OCc3ccccc3)cc2)ncn1)C(=O)O (stereo not drawn) [Example 1-24]

melting point	IC50 (IP receptor) [nM]	SMILES
114 to 116 °C	< 100	O=C(c1ccc(-c2cc(NC(Cc3ccccc3)C(=O)O)ncn2)cc1)C1CCCC1 (stereo not drawn) [Example 17-3]
125 to 127 °C (dec.)	< 100	O=C(O)C(Cc1ccccc1)Nc1cc(-c2ccc(-c3cccc([N+](=O)[O-])c3)cc2)ncn1 (stereo not drawn) [Example 11-9]
143.1 °C	< 100	CN(C)CCOc1cccc(C[C@H](Nc2cc(-c3ccc(OCc4ccccc4)cc3)ncn2)C(=O)O)c1 [Example 4-1, N-{6-[4-(Benzyloxy)phenyl]pyrimidin-4-yl}-3-[2-(dimethylamino)ethoxy]phenylalanine]
113 to 115 °C	< 100	O=C(O)C(Cc1ccccc1)Nc1cc(-c2ccc(OCCc3ccncc3)cc2)ncn1 (stereo not drawn) [Example 2-27]
109 to 112 °C	< 100	O=C(O)C(Cc1ccccc1)Nc1cc(-c2ccc(OCC(F)(F)F)cc2)ncn1 (stereo not drawn) [Example 2-31]
112 to 114 °C	< 100	O=C(O)C(Cc1ccccc1)Nc1cc(-c2ccc(CCCc3ccccc3)cc2)ncn1 (stereo not drawn) [Example 1-6]
211 to 214 °C	100 to 1000	CC(O)C(Nc1cc(-c2ccc(OCc3ccccc3)cc2)ncn1)C(=O)O (stereo not drawn) [Example 1-27]
183 to 188 °C	100 to 1000	O=C(O)C(Cc1c[nH]cn1)Nc1cc(-c2ccc(OCc3ccccc3)cc2)ncn1 (stereo not drawn) [Example 1-39]
190 to 193 °C (dec.)	< 100	COCCOc1ccc(-c2cc(NC(Cc3ccccc3)C(=O)O)ncn2)cc1 (stereo not drawn) [Example 2-24]
52 to 53 °C	< 100	O=C(O)C(Cc1ccccn1)Nc1cc(-c2ccc(OCCc3ccccc3)cc2)ncn1 (stereo not drawn) [Example 2-38]
148 to 150 °C	> 1000	O=C(O)C(Cc1ccccc1)Nc1cc(-c2ccc(CN3CCc4ccccc4C3)cc2)ncn1 (stereo not drawn) [Example 19-4]
86 to 88 °C	< 100	CCCCC(Nc1cc(-c2ccc(OCCc3ccccc3)cc2)ncn1)C(=O)O (stereo not drawn) [Example 2-40]
100 to 104 °C	100 to 1000	CCCCC(Nc1cc(-c2ccc(OCC3CC3)cc2)ncn1)C(=O)O (stereo not drawn) [Example 1-41]
133 to 136 °C	100 to 1000	O=C(O)C(Cc1ccccc1)Nc1cc(-c2ccc(OCc3ccccc3)cc2F)ncn1 (stereo not drawn) [Example 1-57]
159 to 162 °C	< 100	COc1cccc(COc2ccc(-c3cccc(N[C@@H](Cc4ccccc4)C(=O)O)c3)cc2)c1 [Example 24-2, N-{4′-[(3-Methoxybenzyl)oxy]biphenyl-3-yl}phenylalanine]
145 to 146 °C	< 100	O=C(O)C(Cc1ccccc1)Nc1ncnc(-c2ccc(OCc3ccccc3)cc2)c1F (stereo not drawn) [Example 1-20]
117 to 120 °C	> 1000	O=C(O)C(Cc1ccccc1)Nc1cc(-c2ccc(OCCN3CCCC3)cc2)ncn1 (stereo not drawn) [Example 2-22]
175 to 177 °C	< 100	O=C(O)C(Cc1ccccc1)Nc1cc(-c2ccc(OCc3cccc(F)c3)cc2)ncn1 (stereo not drawn) [Example 2-3]
90 to 93 °C	< 100	COc1cc(COc2ccc(-c3cc(NC(Cc4ccccc4)C(=O)O)ncn3)cc2)cc(OC)c1 (stereo not drawn) [Example 2-2]
115 to 120 °C	< 100	COCC(Nc1cc(-c2ccc(OCc3ccccc3)cc2)ncn1)C(=O)O (stereo not drawn) [Example 1-34]
152.8 °C	< 100	O=C(O)[C@H](Cc1ccccc1)Nc1cc(-c2ccc(/C=N/Oc3ccccc3)cc2)ncn1 [Example 21-1, N-(6-{4-[(E)-(phenoxyimino)methyl]phenyl}pyrimidin-4-yl)phenylalanine]
